Assays:
Assay type in all cases: in vivo
[1] = test system: field corn (Zea mays L., var. Dekalb 535, CORN); test: Pre-emerge test, crop safety; conditions: pre-emerge, 14 days after application, scale 0-100
Outline: (§1)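 Herbicidal damage is scored 0 (none) to 100 (complete plant death) two weeks after a simulated field spray. Rates span 15–1000 g ai/ha, delivered in acetone at 187 l/ha. For post-emergence treatments, plants have 2–3 leaves and the spray carries 0.25% v/v non-ionic surfactant.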

[2] = test system: upland rice (Oryza sp., var. Tebonnet, RICE); test: Pre-emerge test, crop safety; conditions: pre-emerge, 14 days after application, scale 0-100
Outline: as §1

[3] = test system: velvetleaf (Abutilon theophrasti, ABUTH); test: Post-emerge test, greenhouse herbicide activity screening; conditions: post-emerge, 14 days after application, rating scale 0-100
Description: (§2) A standard greenhouse herbicide activity screening system was used to evaluate the herbicidal efficacy and crop safety of these test compounds. Seven broadleaf weed species including redroot pigweed (Amaranthus retroflexus, AMARE, velvetleaf (Abutilon theophrasti, ABUTH), sicklepod (Cassia obtusifolia, CASOB), ivyleaf morningglory (Ipomoea hederacea, IPOHE), lambsquarters (Chenopodium album, CHEAL), common ragweed (Ambrosia artemisizfolia L., AMBEL), and cocklebur (Xanthium strumarium, XANST) were used as test species. Four grass weed species including green foxtail (Setaria viridis, SETVI), barnyardgrass (Echinochloa crus-galli, ECHCG), johnsongrass (Sorghum halepense, SORHA), and large crabgrass (Digitaria sanguinalis, DIGSA) were also used. In addition, three crop species, field corn (Zea mays L., var. Dekalb 535, CORN), soybean (Glycine max L., var. Pella 86, SOY), and is upland rice (Oryza sp., var. Tebonnet, RICE) were included.
(§3) All plants were grown in 10 cm square plastic pots which were filled with a sandy loam soil mix. For pre-emerge tests, seeds were planted one day prior to application of the test compounds. For post-emerge tests, seeds were planted 8-21 days prior to the test to allow emergence and good foliage development prior to application of the test substances. At the time of the post-emerge application, plants of all species were usually at the 2-3 leaf stage of development.
(§4) All test compounds Were dissolved in acetone and applied to the test units in a volume of 187 l /ha. Test materials were applied at rates ranging from 15 g ai/ha to 1000 g ai/ha using a track sprayer equipped with a TJ8001E even flow flat fan spray nozzle. Plants were arranged on a shelf so that the top of the canopy (post-emerge) or top of the soil surface (pre-emerge) was 40-45 cm below the nozzle. Pressurized air was used to force the test solution through the nozzle as it was mechanically advanced (via electrically driven chain drive) over the top of all test plants/pots. This application simulates a typical commercial field herbicide application.
(§5) In the post-emerge test, a commercial non-ionic surfactant was also included (0.25% v/v) to enhance wetting of the leaf surfaces of target plants. Immediately after application, test units of the pre-emerge applications were watered at the soil surface to incorporate the test materials. Subsequently, these test units were bottom-watered. Post-emerge test units were always bottom-watered.
(§6) At 14 days after application of the test materials, phytotoxicity ratings were recorded. A rating scale of 0-100 was used as previously described in Research Methods in Weed Science, 2nd edition, B. Truelove, Ed., Southern Weed Science Society, Auburn University, Auburn, Ala. 1977. Briefly, “0” corresponds to no damage and “100” corresponds to complete death of all plants in the test unit. This scale was used both to determine efficacy against weed species and damage to crop species. Herbicide activity data for various compounds of this invention, which are shown by compound No. in Tables 1-8, are shown in Tables 11 and 12.

[4] = test system: barnyardgrass (Echinochloa crus-galli, ECHCG); test: as above; conditions: post-emerge, 14 days after application, rating scale 0-100
Description: as §2, §3, §4, §5, §6

[5] = test system: green foxtail (Setaria viridis, SETVI); test: as above; conditions: post-emerge, 14 days after application, rating scale 0-100
Description: as §2, §3, §4, §5, §6

[6] = test system: sicklepod (Cassia obtusifolia, CASOB); test: as above; conditions: post-emerge, 14 days after application, rating scale 0-100
Description: as §2, §3, §4, §5, §6

[7] = test system: ivyleaf morningglory (Ipomoea hederacea, IPOHE); test: as above; conditions: post-emerge, 14 days after application, rating scale 0-100
Description: as §2, §3, §4, §5, §6

[8] = test system: lambsquarters (Chenopodium album, CHEAL); test: as above; conditions: post-emerge, 14 days after application, rating scale 0-100
Description: as §2, §3, §4, §5, §6

[9] = test system: large crabgrass (Digitaria sanguinalis, DIGSA); test: as above; conditions: post-emerge, 14 days after application, rating scale 0-100
Description: as §2, §3, §4, §5, §6

[10] = test system: redroot pigweed (Amaranthus retroflexus, AMARE); test: as above; conditions: post-emerge, 14 days after application, rating scale 0-100
Description: as §2, §3, §4, §5, §6

[11] = test system: field corn (Zea mays L., var. Dekalb 535, CORN); test: Post-emerge test, crop safety; conditions: post-emerge, 14 days after application, rating scale 0-100
Outline: (§7)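 Visual ratings on a 0-100 scale (0 no damage, 100 all plants dead) were taken at 14 days after treatment. Rates of 15-1000 g ai/ha in acetone, 187 l/ha, were sprayed onto soil one day after planting (pre-emerge) or onto 2-3 leaf plants with 0.25% v/v surfactant (post-emerge).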

[12] = test system: upland rice (Oryza sp., var. Tebonnet, RICE); test: Post-emerge test, crop safety; conditions: post-emerge, 14 days after application, rating scale 0-100
Outline: as §7

[13] = test system: redroot pigweed (Amaranthus retroflexus, AMARE); test: Pre-emerge test, greenhouse herbicide activity screening; conditions: pre-emerge, 14 days after application, scale 0-100
Outline: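 Compounds in acetone were track-sprayed at 187 l/ha, 15–1000 g ai/ha, onto sandy loam pots. Pre-emerge seeds were sown one day before spraying, with surface watering afterwards. Post-emerge plants were at the 2–3 leaf stage and sprayed with 0.25% v/v non-ionic surfactant. Injury was rated 0–100 at 14 days.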

[14] = test system: velvetleaf (Abutilon theophrasti, ABUTH); test: as above; conditions: pre-emerge, 14 days after application, scale 0-100
Description: as §2, §3, §4, §5, §6

[15] = test system: barnyardgrass (Echinochloa crus-galli, ECHCG); test: as above; conditions: pre-emerge, 14 days after application, scale 0-100
Description: as §2, §3, §4, §5, §6

[16] = test system: green foxtail (Setaria viridis, SETVI); test: as above; conditions: pre-emerge, 14 days after application, scale 0-100
Description: as §2, §3, §4, §5, §6

[17] = test system: sicklepod (Cassia obtusifolia, CASOB); test: as above; conditions: pre-emerge, 14 days after application, scale 0-100
Description: as §2, §3, §4, §5, §6

[18] = test system: ivyleaf morningglory (Ipomoea hederacea, IPOHE); test: as above; conditions: pre-emerge, 14 days after application, scale 0-100
Description: as §2, §3, §4, §5, §6

[19] = test system: lambsquarters (Chenopodium album, CHEAL); test: as above; conditions: pre-emerge, 14 days after application, scale 0-100
Description: as §2, §3, §4, §5, §6

[20] = test system: large crabgrass (Digitaria sanguinalis, DIGSA); test: as above; conditions: pre-emerge, 14 days after application, scale 0-100
Description: as §2, §3, §4, §5, §6

COc1c(Cl)cc(F)c(-n2c(=O)cc(C(F)(F)F)n(N)c2=O)c1NC(=O)COCc1ccccc1 [2-187]
40: phytotoxicity rating RICE (crop damage) ([2]; 63 g ai/ha) | ECHCG phytotoxicity rating ([4]; 250 g ai/ha) | SETVI phytotoxicity rating ([5]; 63 g ai/ha) | DIGSA phytotoxicity rating ([9]; 250 g ai/ha)
100: ABUTH phytotoxicity rating ([3]; 63 g ai/ha) | ABUTH phytotoxicity rating ([3]; 250 g ai/ha) | CASOB phytotoxicity rating ([6]; 250 g ai/ha) | IPOHE phytotoxicity rating ([7]; 63 g ai/ha) | IPOHE phytotoxicity rating ([7]; 250 g ai/ha) | CHEAL phytotoxicity rating ([8]; 63 g ai/ha) | CHEAL phytotoxicity rating ([8]; 250 g ai/ha) | AMARE phytotoxicity rating ([10]; 250 g ai/ha) | phytotoxicity rating AMARE ([13]; 63 g ai/ha) | phytotoxicity rating AMARE ([13]; 250 g ai/ha) | phytotoxicity rating ABUTH ([14]; 63 g ai/ha) | phytotoxicity rating ABUTH ([14]; 250 g ai/ha) | phytotoxicity rating SETVI ([16]; 250 g ai/ha) | phytotoxicity rating CASOB ([17]; 250 g ai/ha) | phytotoxicity rating IPOHE ([18]; 250 g ai/ha) | phytotoxicity rating CHEAL ([19]; 63 g ai/ha) | phytotoxicity rating CHEAL ([19]; 250 g ai/ha) | phytotoxicity rating DIGSA ([20]; 250 g ai/ha)
10: DIGSA phytotoxicity rating ([9]; 63 g ai/ha)
20: ECHCG phytotoxicity rating ([4]; 63 g ai/ha) | phytotoxicity rating ECHCG ([15]; 63 g ai/ha)
70: CASOB phytotoxicity rating ([6]; 63 g ai/ha)
50: RICE phytotoxicity rating (crop damage) ([12]; 63 g ai/ha) | phytotoxicity rating SETVI ([16]; 63 g ai/ha)
0: phytotoxicity rating CORN (crop damage) ([1]; 63 g ai/ha)
60: SETVI phytotoxicity rating ([5]; 250 g ai/ha) | phytotoxicity rating ECHCG ([15]; 250 g ai/ha) | phytotoxicity rating CASOB ([17]; 63 g ai/ha)
75: CORN phytotoxicity rating (crop damage) ([11]; 250 g ai/ha) | phytotoxicity rating IPOHE ([18]; 63 g ai/ha)
15: CORN phytotoxicity rating (crop damage) ([11]; 63 g ai/ha)
99: AMARE phytotoxicity rating ([10]; 63 g ai/ha)
90: phytotoxicity rating CORN (crop damage) ([1]; 250 g ai/ha) | phytotoxicity rating RICE (crop damage) ([2]; 250 g ai/ha) | RICE phytotoxicity rating (crop damage) ([12]; 250 g ai/ha) | phytotoxicity rating DIGSA ([20]; 63 g ai/ha)

COc1c(C#N)cc(F)c(-n2c(=O)cc(C(F)(F)F)n(C)c2=O)c1NC(=O)c1ccc2ccccc2c1 [2-181]
20: CORN phytotoxicity rating (crop damage) ([11]; 250 g ai/ha)
95: phytotoxicity rating SETVI ([16]; 250 g ai/ha)
30: DIGSA phytotoxicity rating ([9]; 63 g ai/ha) | phytotoxicity rating IPOHE ([18]; 63 g ai/ha)
90: phytotoxicity rating CASOB ([17]; 250 g ai/ha) | phytotoxicity rating DIGSA ([20]; 250 g ai/ha)
15: phytotoxicity rating RICE (crop damage) ([2]; 63 g ai/ha) | RICE phytotoxicity rating (crop damage) ([12]; 63 g ai/ha)
100: ABUTH phytotoxicity rating ([3]; 63 g ai/ha) | ABUTH phytotoxicity rating ([3]; 250 g ai/ha) | CASOB phytotoxicity rating ([6]; 63 g ai/ha) | CASOB phytotoxicity rating ([6]; 250 g ai/ha) | IPOHE phytotoxicity rating ([7]; 63 g ai/ha) | IPOHE phytotoxicity rating ([7]; 250 g ai/ha) | CHEAL phytotoxicity rating ([8]; 63 g ai/ha) | CHEAL phytotoxicity rating ([8]; 250 g ai/ha) | AMARE phytotoxicity rating ([10]; 63 g ai/ha) | AMARE phytotoxicity rating ([10]; 250 g ai/ha) | phytotoxicity rating AMARE ([13]; 63 g ai/ha) | phytotoxicity rating AMARE ([13]; 250 g ai/ha) | phytotoxicity rating ABUTH ([14]; 63 g ai/ha) | phytotoxicity rating ABUTH ([14]; 250 g ai/ha) | phytotoxicity rating CHEAL ([19]; 63 g ai/ha) | phytotoxicity rating CHEAL ([19]; 250 g ai/ha)
70: SETVI phytotoxicity rating ([5]; 63 g ai/ha) | DIGSA phytotoxicity rating ([9]; 250 g ai/ha) | phytotoxicity rating SETVI ([16]; 63 g ai/ha)
80: phytotoxicity rating RICE (crop damage) ([2]; 250 g ai/ha) | SETVI phytotoxicity rating ([5]; 250 g ai/ha) | phytotoxicity rating ECHCG ([15]; 250 g ai/ha) | phytotoxicity rating IPOHE ([18]; 250 g ai/ha)
60: ECHCG phytotoxicity rating ([4]; 250 g ai/ha) | RICE phytotoxicity rating (crop damage) ([12]; 250 g ai/ha) | phytotoxicity rating DIGSA ([20]; 63 g ai/ha)
5: phytotoxicity rating CORN (crop damage) ([1]; 250 g ai/ha)
0: phytotoxicity rating CORN (crop damage) ([1]; 63 g ai/ha)
10: CORN phytotoxicity rating (crop damage) ([11]; 63 g ai/ha) | phytotoxicity rating CASOB ([17]; 63 g ai/ha)
40: ECHCG phytotoxicity rating ([4]; 63 g ai/ha) | phytotoxicity rating ECHCG ([15]; 63 g ai/ha)
